Measured values as given in patent publication US9346780B2, “Process for producing dihydro-2H-pyran derivatives” (OKINAWA INSTITUTE OF SCIENCE AND TECHNOLOGY SCHOOL …, priority 2012, dated 2016).

Assay: Cytotoxicity, K562 cell growth inhibition (Cell Counting Kit-8 / WST-8)
Format: cell-based
Conditions: human; K562 cells; 6-48 hrs incubation; WST-8 absorbance at 450 nm; concentration inhibiting the cell growth by 50%
Method: K562 cells (American Type Culture Collection) were cultured in a culture medium containing 10% (v/v) fetal calf serum (FCS) (manufactures by Sigma) to logarithmic phase. The cells were seeded in 96-well microtiter plate at a density of 5000 cells/well in 100 μL cell culture medium and incubated at 37° C. and 5% CO2 in a humidified incubator overnight. The test compounds of various concentrations were added in a well at 10 fold concentration in 1/10 volume of medium without FCS. After 6-48 hrs incubation at 37° C. in the CO2 incubator, 10 μL solution of the viable cell counting reagent, Cell counting Kit-8 (5 mmol/L WST-8, 0.2 mmol/L 1-Methoxy PMS, 150 mmol/L NaCl) (manufactured by Dojindo) was added to each well, and reacted for 1 to 4 hours in the CO2 incubator. After the incubation, an absorbance of formazan, generated by reduction of WST-8 was determined at 450 nm using a microplate reader.
The assay readout is correlated with the viable cell numbers. Small values correspond to high inhibition and larger values to low inhibition of the cell growth. To determine IC50 values (i.e. the concentration inhibiting the cell growth by 50%) of the compounds of formula II, IV and V, several assays were made with a range of concentrations chosen empirically to give low, high and intermediate inhibition of the growth and determined using the curve fitting software.
IC50 values can be converted logarithmically to pIC50 values (−log IC50), in which higher values indicate exponentially greater potency. The IC50 value is not an absolute value but depends on experimental conditions e.g. concentrations employed.

Compound | IC50
O=C(OCc1ccccc1)C1=CC(c2ccccc2)CC(O)(C(=O)OCc2ccccc2)O1 (stereo not drawn) | 149 µM
CCOC(=O)C1=CC(C2CCCCC2)CC(O)(C(=O)OCC)O1 (stereo not drawn) | 58 µM
CCOC(=O)C1=CC(c2ccc(Br)cc2)CC(O)(C(=O)OCC)O1 (stereo not drawn) | 80 µM
COC(=O)C1=CC(c2ccc([N+](=O)[O-])cc2)CC(O)(C(=O)OCc2ccccc2)O1 (stereo not drawn) | 81 µM
CCOC(=O)C1=CC(c2ccc([N+](=O)[O-])cc2)CC(Nc2ccc(OC)cc2)(C(=O)OCC)O1 (stereo not drawn) | 12 µM
CCOC(=O)C1=CC(c2ccc([N+](=O)[O-])cc2)CC(F)(C(=O)OCC)O1 (stereo not drawn) | 11 µM
CCOC(=O)C1=CC(c2ccc(Cl)cc2)CC(F)(C(=O)OCC)O1 (stereo not drawn) | 52 µM
CCOC(=O)C1=CC(c2ccc(Br)cc2)CC(F)(C(=O)OCC)O1 (stereo not drawn) | 53 µM
CCOC(=O)C1=CC(c2ccco2)CC(F)(C(=O)OCC)O1 (stereo not drawn) | 135 µM
CCOC(=O)C1=CC(c2ccc([N+](=O)[O-])cc2)CC(C(=O)OCC)=NN1 (stereo not drawn) | 148 µM
O=C(OCc1ccccc1)[C@]1(O)C[C@H](c2ccccc2)C[C@](O)(C(=O)OCc2ccccc2)[C@H]1[N+](=O)[O-] | 54 µM
COC(=O)[C@@]1(O)C[C@@H](c2ccc([N+](=O)[O-])cc2)C[C@@](O)(C(=O)OCc2ccccc2)[C@@H]1[N+](=O)[O-] | 90 µM
CCOC(=O)[C@]1(O)C[C@H](c2ccc(C(F)(F)F)cc2)C[C@](O)(C(=O)OCC)[C@H]1[N+](=O)[O-] | 144 µM
CCOC(=O)[C@]1(O)C[C@H](c2ccc(Br)cc2)C[C@](O)(C(=O)OCC)[C@H]1[N+](=O)[O-] | 144 µM
CCOC(=O)[C@]1(O)C[C@H](C2CCCCC2)C[C@](O)(C(=O)OCC)[C@H]1[N+](=O)[O-] | 105 µM
